Results reported in patent publication US20150094474A1, “AGRICULTURAL CHEMICALS” (Redx Pharma Ltd., priority 2012, published 2015).

What was measured:
peas = experiment: Herbicidal bioassay, peas (% necrosis); type: in vivo
Method: (§1) A laboratory bioassay was conducted to screen ten compounds (Fluazifop (25); Ethyl fluazifop (62); five fluazifop analogues: 27, 28, 63, 64 and 65; mesofulfuron (6); and two mesosulfuron analogues: 8 and 61. for activity against Lolium perenne, barley, peas and Chinese cabbage. Compounds were diluted in DMSO. Controls were performed using both DMSO and water.
(§2) Plants were obtained as seeds and were grown to the 2-4 true leaf stage. Plants were grown individually in seed trays. Each plant (in an approximately 3 cm diameter plug) was then detached from the tray for spraying. Environmental conditions were closely monitored and recorded and were within the optimal range of the target species.
(§3) The compounds were screened at a range of six concentrations, eg. 0.05%, 0.01%, 0.005%, 0.001%, 0.0005% and 0.0001%. Treatments will be applied directly onto the plants, using a potter tower.
(§4) One plant of each type will be sprayed using a potter tower. The 4 different types of weeds will be placed in a 10 cm diameter area underneath the potter sprayer and sprayed simultaneously. The growth of the plants and any Phytotoxicity effects will then be assessed at specified growth intervals, according to EPPO guideline PP1/135. Five replicates will be performed for each treatment, for each species.

barley = experiment: Herbicidal bioassay, barley (% necrosis); type: in vivo
Method: as §1, §2, §3, §4

COc1cc(OC)nc(NC(=O)NS(=O)(=O)c2cc(CNS(C)(=O)=O)ccc2CO)n1 [Compound 8, 1-(4,6-Dimethoxypyrimidin-2-yl)-3-[2-(hydroxymethyl)-5-(methanesulfonamidomethyl)phenyl]sulfonyl-urea]
B (50%-80% necrosis): Sum of % necrosis in Pea (peas; Dose 0.000001, Day 3) | Sum of % necrosis in Pea (peas; Dose 0.000005, Day 3) | Sum of % necrosis in Pea (peas; Dose 0.000005, Day 7) | Sum of % necrosis in Pea (peas; Dose 0.00001, Day 3) | Sum of % necrosis in Pea (peas; Dose 0.00005, Day 3) | Sum of % necrosis in Pea (peas; Dose 0.0001, Day 3) | Sum of % necrosis in Pea (peas; Dose 0.0005, Day 3)
A (over 80% necrosis): Sum of % necrosis in Pea (peas; Dose 0.000001, Day 7) | Sum of % necrosis in Pea (peas; Dose 0.000001, Day 10) | Sum of % necrosis in Pea (peas; Dose 0.000001, Day 14) | Sum of % necrosis in Pea (peas; Dose 0.000005, Day 10) | Sum of % necrosis in Pea (peas; Dose 0.000005, Day 14) | Sum of % necrosis in Pea (peas; Dose 0.00001, Day 7) | Sum of % necrosis in Pea (peas; Dose 0.00001, Day 10) | Sum of % necrosis in Pea (peas; Dose 0.00001, Day 14) | Sum of % necrosis in Pea (peas; Dose 0.00005, Day 7) | Sum of % necrosis in Pea (peas; Dose 0.00005, Day 10) | Sum of % necrosis in Pea (peas; Dose 0.00005, Day 14) | Sum of % necrosis in Pea (peas; Dose 0.0001, Day 7) | Sum of % necrosis in Pea (peas; Dose 0.0001, Day 10) | Sum of % necrosis in Pea (peas; Dose 0.0001, Day 14) | Sum of % necrosis in Pea (peas; Dose 0.0005, Day 7) | Sum of % necrosis in Pea (peas; Dose 0.0005, Day 10) | Sum of % necrosis in Pea (peas; Dose 0.0005, Day 14)
C (less than 50% necrosis): Sum of % necrosis in Pea (peas; Dose 0.000001, Day 0) | Sum of % necrosis in Pea (peas; Dose 0.000001, Day 1) | Sum of % necrosis in Pea (peas; Dose 0.000005, Day 0) | Sum of % necrosis in Pea (peas; Dose 0.000005, Day 1) | Sum of % necrosis in Pea (peas; Dose 0.00001, Day 0) | Sum of % necrosis in Pea (peas; Dose 0.00001, Day 1) | Sum of % necrosis in Pea (peas; Dose 0.00005, Day 0) | Sum of % necrosis in Pea (peas; Dose 0.00005, Day 1) | Sum of % necrosis in Pea (peas; Dose 0.0001, Day 0) | Sum of % necrosis in Pea (peas; Dose 0.0001, Day 1) | Sum of % necrosis in Pea (peas; Dose 0.0005, Day 0) | Sum of % necrosis in Pea (peas; Dose 0.0005, Day 1) | Sum of % necrosis in barley (barley; Dose 0.000001, Day 0) | Sum of % necrosis in barley (barley; Dose 0.000001, Day 1) | Sum of % necrosis in barley (barley; Dose 0.000001, Day 3) | Sum of % necrosis in barley (barley; Dose 0.000001, Day 7) | Sum of % necrosis in barley (barley; Dose 0.000001, Day 10) | Sum of % necrosis in barley (barley; Dose 0.000001, Day 14) | Sum of % necrosis in barley (barley; Dose 0.000005, Day 0) | Sum of % necrosis in barley (barley; Dose 0.000005, Day 1) | Sum of % necrosis in barley (barley; Dose 0.000005, Day 3) | Sum of % necrosis in barley (barley; Dose 0.000005, Day 7) | Sum of % necrosis in barley (barley; Dose 0.000005, Day 10) | Sum of % necrosis in barley (barley; Dose 0.000005, Day 14) | Sum of % necrosis in barley (barley; Dose 0.00001, Day 0) | Sum of % necrosis in barley (barley; Dose 0.00001, Day 1) | Sum of % necrosis in barley (barley; Dose 0.00001, Day 3) | Sum of % necrosis in barley (barley; Dose 0.00001, Day 7) | Sum of % necrosis in barley (barley; Dose 0.00001, Day 10) | Sum of % necrosis in barley (barley; Dose 0.00001, Day 14) | Sum of % necrosis in barley (barley; Dose 0.00005, Day 0) | Sum of % necrosis in barley (barley; Dose 0.00005, Day 1) | Sum of % necrosis in barley (barley; Dose 0.00005, Day 3) | Sum of % necrosis in barley (barley; Dose 0.00005, Day 7) | Sum of % necrosis in barley (barley; Dose 0.00005, Day 10) | Sum of % necrosis in barley (barley; Dose 0.00005, Day 14) | Sum of % necrosis in barley (barley; Dose 0.0001, Day 0) | Sum of % necrosis in barley (barley; Dose 0.0001, Day 1) | Sum of % necrosis in barley (barley; Dose 0.0001, Day 3) | Sum of % necrosis in barley (barley; Dose 0.0001, Day 7) | Sum of % necrosis in barley (barley; Dose 0.0001, Day 10) | Sum of % necrosis in barley (barley; Dose 0.0001, Day 14) | Sum of % necrosis in barley (barley; Dose 0.0005, Day 0) | Sum of % necrosis in barley (barley; Dose 0.0005, Day 1) | Sum of % necrosis in barley (barley; Dose 0.0005, Day 3) | Sum of % necrosis in barley (barley; Dose 0.0005, Day 7) | Sum of % necrosis in barley (barley; Dose 0.0005, Day 10) | Sum of % necrosis in barley (barley; Dose 0.0005, Day 14)
